The values below come from PubChem BioAssay AID179 (DTP/NCI, 2004).

Values joined by “and” are separate entries in the source; they are usually repeats but may differ in a detail not shown here. Equal entries are not always repeated. Active and inactive are the calls of the source.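 The calls were made as follows: active = compounds giving half or more protection of infected cells from virus-caused growth loss, again on retest; inactive = the rest.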 Where a SMILES comes first, the peptide text is derived from it. [ ]: non-standard residue; d: D form. The star is where a group is joined. ξ: configuration not given here. NMeF = CN[CH](Cc1ccccc1)C(=O)O; ξNMe2Val = CC(C)C(C(=O)*)N(C)C; NMeV = CN[CH](C(=O)O)C(C)C; OtBu = CC(C)(C)O*

The assay deals with CEM cells HIV-1 protection, formazan growth assay. Description: NCI AIDS Antiviral Assay. The settings on record: for IC50: measured here: growth of uninfected CEM cells. In outline:
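Category rules: moderately active means at least 50% protection on retest, and confirmed active means 100% protection reproducibly. The underlying data came from a formazan growth assay in HIV-1-infected CEM cells.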

By EC50 is commonly meant the concentration that produces a half-maximal response. As a reminder, the IC50 is the midpoint of a concentration-inhibition curve. As for `O=C(c1ccccc1SSc1ccccc1C(=O)N1CSC[C@@H]1CO)N1CSC[C@H]1CO`, the EC50 was more than 200 µM and the 50% inhibitory concentration (IC50) is 107 µM. The matching figures for `COCCOC(C)C(=O)C(O)S(=O)(=O)O` (stereo unspecified): more than 200 µM and 186 µM. On to `N=c1ccn2c(n1)OC1C(OP(=O)(O)O)C(CO)OC12` (stereo unspecified), for which the EC50 is more than 200 µM and the IC50 came out at 0.437 µM.

`CC(C)C(C(=O)N(C)C(Cc1ccccc1)C(=O)N(C)C(C(=O)N(C)C(C(=O)N1CCCC1C(=O)OC(C)(C)C)C(C)C)C(C)C)N(C)C` (stereo unspecified) (ξNMe2Val-[NMeF][NMeV][NMeV]P-OtBu; configuration not given here): the EC50 is 24.5 µM and the IC50 was 110 µM. For `O=C1CCC2(CCCCC2)N1`, the EC50 was more than 200 µM and the IC50 is more than 200 µM. With `Brc1cnc2nsnc2c1`, the outcome was inactive. `COC(=O)C1ON(c2ccccc2)C2c3ccccc3-c3ccccc3C12` (stereo unspecified): the EC50 is more than 5.62 µM and the IC50 was more than 5.62 µM. For the molecule `c1ccc(C2=NOC3(c4ccccc4)CC(c4cccs4)Sc4ccccc4N23)cc1` (stereo unspecified), the EC50 is more than 200 µM and the IC50 stood at 70.8 µM.

Take `Cc1cc(N(CCC#N)CCC#N)ccc1/C=N/NC(=O)c1cc(Cl)ccc1O`: the EC50 was more than 200 µM and the IC50 is more than 200 µM.

For `O=C(O)c1cscc1Cc1cccs1`, the EC50 is more than 200 µM and the half-maximal inhibitory concentration (IC50) is more than 200 µM.

As to `COC1=C(N)C(=O)c2ncccc2C1=O`, the outcome was inactive.

With `O=C(c1ccco1)C1CC(c2c(O)ccc3ccccc23)=NN1` (stereo unspecified), the EC50 is more than 200 µM and the IC50 was determined as 11.5 µM. As for `O=C1NC2C3CC(c4ccccc43)C12` (stereo unspecified), the EC50 is more than 832 µM and the IC50 was more than 832 µM. For `Nc1c(C(=O)Nc2ccc(C3=NCCN3)cc2)cccc1C(=O)Nc1ccc(C2=NCCN2)cc1`, the EC50 was more than 110 µM and the half-inhibitory concentration (IC50) stood at 67.6 µM. As to `O=c1[nH]c(=O)n(C2CC(O)C(COP(=O)(OCc3ccc([N+](=O)[O-])o3)N3CCCCC3)O2)cc1F` (stereo unspecified), the EC50 was more than 200 µM and the IC50 was found to be 0.17 µM. In the case of `Cc1ncc([N+](=O)[O-])n1CCNS(=O)(=O)CCCn1ncnc1[N+](=O)[O-]`, the EC50 is more than 200 µM and the IC50 was more than 200 µM. For `O=C1Nc2ccccc2/C1=N\[O-].O=C1Nc2ccccc2/C1=N\[O-].[Cu+2]`, the EC50 was more than 200 µM and the IC50 was more than 200 µM. Consider `COc1ccc(-c2c(N3CCOCC3)oc3cc(N4CCOCC4)c(O)cc23)cc1`, for which the EC50 is more than 200 µM and the 50% inhibitory concentration (IC50) turned out to be 10.2 µM. On to `CN[C@H]1CCc2cc(OC)c(OC)c(OC)c2-c2ccc(OC)c(=O)cc21`, for which the result was inactive.

On to `COC(=O)C1C(=O)NC2(C)CC1c1ccccc1O2` (stereo unspecified), for which the result was inactive. Turning to `CSc1c(C#N)c(=O)n(N)c2c1c(C)nn2-c1ccccc1`, the EC50 was more than 200 µM and the half-inhibitory concentration (IC50) amounted to 26.9 µM. With `Cc1cc(-c2ccc(N=Nc3ccc4c(S(=O)(=O)O)cc(S(=O)(=O)O)c(N)c4c3O)c(C)c2)ccc1N=Nc1ccc2c(S(=O)(=O)O)cc(S(=O)(=O)O)c(N)c2c1O`, the EC50 is more than 9.33 µM. For the molecule `CCOC(=O)CCc1cn2cc(Br)nc(OC)c2n1`, the EC50 was more than 200 µM and the IC50 amounted to 25.1 µM. Regarding `CCN=C(NC(=O)c1ccccc1F)SCSC(=NCC)NC(=O)c1ccccc1F`, the EC50 was more than 200 µM and the IC50 came to 55 µM. On the same counts, the results for `CSCCC1OCC2OC(n3ccc(=O)[nH]c3=O)CC2N1O` (stereo unspecified) are more than 200 µM and more than 200 µM. As to `COc1ccc(-c2cc(C(=O)Nc3ccc(C)c(C)c3)nc(NC#N)n2)cc1`, the EC50 was more than 339 µM and the 50% inhibitory concentration (IC50) is more than 339 µM.

As to `COc1cc(CC2c3cc(OC)c(OC)cc3CCN2C)c(Oc2cc3c(cc2OC)-c2c(OC)c(OC)c(OC)c4c2C(C3)N(C)CC4)cc1OC` (stereo unspecified), the result was inactive. For the molecule `O/N=C(\CSSC/C(=N/O)c1ccc(Cl)cc1)c1ccc(Cl)cc1`, the EC50 was more than 200 µM and the IC50 is 10.7 µM.

Turning to `O=C(O)C(CSC(c1ccccc1)(c1ccccc1)c1ccccc1)N=Cc1cccs1` (stereo unspecified), the EC50 was more than 200 µM and the IC50 was found to be 2.04 µM. As to `Cc1n[nH]c(=O)n1/N=C\CC/C=N\n1c(C)n[nH]c1=O`, the EC50 was more than 200 µM and the IC50 is more than 200 µM. On to `Cc1ccc(C(=O)O)cc1NC(=O)c1cc(/C=C/c2ccccc2)[nH]c(=S)n1`, for which the EC50 was more than 240 µM and the IC50 is more than 240 µM. Consider `Cc1ccc2n(c1)cc(-c1ccc(/C=N/NC(=N)N/N=C/c3ccc(-c4cn5cc(C)ccc5[n+]4C)cc3)cc1)[n+]2C`, for which the EC50 was 15.5 µM and the IC50 turned out to be 49 µM. In the case of `COC(=O)c1cc(C(=C(Cl)Cl)c2cc(C(=O)OC)c(OC)c(Br)c2C)c(C)c(Br)c1OC`, the EC50 was more than 200 µM and the IC50 came out at 79.4 µM. Regarding `O=c1c2cnccc2cc2c3ccccc3ccn12`, the EC50 was more than 200 µM and the IC50 turned out to be 7.41 µM. Consider `Cc1cc(NS(=O)(=O)c2ccc(N=c3c4ccccc4n(-c4ccccc4)c4ccccc34)cc2)no1`, for which the outcome was inactive. Take `O=c1sc2ccccc2n1CC1CS1` (stereo unspecified): the EC50 was more than 302 µM and the IC50 is 11 µM. On the same counts, the results for `COc1cc2c(cc1OC)C(C1(O)CCCCC1)NCC2` (stereo unspecified) are more than 851 µM and 457 µM. On the same counts, the results for `O=c1[nH]c2cn(-c3ccccc3)nc2c(=O)n1O` are more than 200 µM and 3.55 µM. For `Fc1ccc(Oc2nc3ccccc3nc2-c2ccccc2)cc1`, the result was inactive. For the molecule `CC1=C(C)SC(=C2Sc3c(n(C)c(=O)n(C)c3=O)S2)S1`, the EC50 is 182 µM and the IC50 is more than 200 µM. Take `O=c1[nH]nc(-c2ccccc2)n1/N=C/c1cccc([N+](=O)[O-])c1`: the EC50 was more than 200 µM and the IC50 is 24.5 µM. `CC1=C(C(=O)CC(=O)C(=O)Nc2ccc(C)c(C)c2)Sc2ccccc2N1`: the EC50 was more than 6.92 µM and the IC50 is more than 6.92 µM.

For the molecule `O=C1c2ccccc2S[C@@H](O)[C@@H]2CCCN12`, the outcome was inactive.

On to `c1cnc2c(c1)-n1cccc1C1(CCSC1)NN2` (stereo unspecified), for which the EC50 is more than 138 µM and the IC50 is more than 138 µM. Turning to `CN(C)CCNc1ncnc2nc(-c3ccccc3)c(-c3ccccc3)nc12`, the EC50 was more than 200 µM and the IC50 amounted to 112 µM. `O=C(Oc1ccc(OC(Oc2ccccc2)c2ccccc2)cc1)c1ccccc1` (stereo unspecified): the EC50 is more than 200 µM and the IC50 is 44.7 µM. In the case of `CCC1(CC)CC(=NNS(=O)(=O)c2ccc(C)cc2)C1`, the outcome was inactive. As for `CCOC(=O)/C=C/c1cccc(C#N)c1`, the EC50 was more than 178 µM and the IC50 came out at 87.1 µM. As for `COc1ccc(-c2nc(-c3cnccn3)n(COCCO)n2)cc1`, the EC50 is more than 200 µM and the 50% inhibitory concentration (IC50) is more than 200 µM. As for `CC(=O)N/C(=C\c1ccc(/C=C(\NC(C)=O)C2=NC3C(=O)c4ccccc4C(=O)C3N2)cc1)C1=NC2C(=O)c3ccccc3C(=O)C2N1` (stereo unspecified), the result was inactive. For `COc1ccc(NC(C)=O)cc1N1C(=O)/C(=C\c2cccc(Oc3ccccc3)c2)SC1c1ccccc1` (stereo unspecified), the EC50 was more than 200 µM and the IC50 worked out at 18.6 µM. The matching figures for `CC1(CF)SCc2nc3ccccc3n21` (stereo unspecified): more than 200 µM and more than 200 µM. As for `C=CCC(CC(CC=C)C(=O)O)C(=O)O` (stereo unspecified), the EC50 was more than 1170 µM and the IC50 is more than 1170 µM. Turning to `NC(N)=NS(=O)(=O)c1ccc(NC(=O)c2ccc3[nH]c4ccccc4c(=O)c3c2)cc1`, the EC50 is more than 200 µM and the IC50 was more than 200 µM. As for `O=C1c2cccn2-c2ccccc2OC1c1ccc(NC(=S)Nc2ccc(Cl)cn2)cc1` (stereo unspecified), the EC50 is more than 200 µM and the IC50 came to 15.8 µM. For the molecule `O=C(OCc1ccccc1)N1CCNCCN(C(=O)OCc2ccccc2)CCNCC1`, the EC50 was more than 200 µM and the IC50 stood at 87.1 µM. Turning to `CC(=O)Nc1cc(NC(C)=O)c(N=O)c(NC(C)=O)n1`, the result was inactive. `CSC(SC)=C1C(=O)N(c2ccccc2)N=C1C`: the EC50 is more than 200 µM and the half-maximal inhibitory concentration (IC50) is 37.2 µM. On the same counts, the results for `COc1ccc2[nH]c3c(C)c4ccnc(NCCCN(C)CCCNc5ccc6ncn7c8ccccc8c(=O)c5c67)c4c(C)c3c2c1` are more than 0.0251 µM and 0.00794 µM. Take `Cn1c(=O)c2nccnc2n(C)c1=O`: the EC50 is 178 µM and the IC50 is more than 200 µM. For `CCSc1nc2cccc([N+](=O)[O-])c2n1CC`, the outcome was inactive. `CC1(CCCO)CCCCCC(C)(CCCO)C1=O` (stereo unspecified): the EC50 was more than 200 µM and the IC50 turned out to be 97.7 µM.

Take `CC(=O)[C@H]1CC[C@H]2[C@@H]3CCC4=CC(=O)CC[C@]4(C)[C@H]3CC[C@]12C`: the EC50 is more than 200 µM; the 50% inhibitory concentration (IC50) is 85.1 µM and 91.2 µM. `CC(C)(C)OC(=O)NC(Cc1ccccc1)NC(=O)NC(=O)OCc1ccccc1` (stereo unspecified): the EC50 is more than 200 µM and the IC50 was determined as 112 µM.

As for `CSC1=N/C(=C\c2ccc(C)cc2)C(=O)N1`, the EC50 is more than 200 µM and the IC50 stood at 178 µM. Regarding `COc1cccc(NC(=O)/C(CS(=O)(=O)CCC(C(C)=O)C(C)=O)=N\NC(C)(C)C)c1`, the EC50 was 25.7 µM and the IC50 turned out to be 550 µM.

Turning to `COc1cccc(CCCCCCCC(=O)O)c1`, the EC50 was more than 200 µM and the IC50 is more than 200 µM.

In the case of `COc1ccc(C(=O)C(C(=O)CCC(=O)Nc2cccc(C(F)(F)F)c2)c2ccccc2)cc1` (stereo unspecified), the EC50 was more than 11.2 µM and the IC50 was more than 11.2 µM. For `O=C(O)CCSSCCCCS(=O)O`, the EC50 was more than 200 µM and the IC50 was found to be 2.04 µM. For the molecule `CCN(CC)CC(=O)NC1c2ccccc2Sc2c(C)cccc21` (stereo unspecified), the EC50 is more than 148 µM and the IC50 turned out to be 60.3 µM. `OC(C#CCN1CCCC1)(c1ccccc1)c1ccccc1.[C-]#[O+].[C-]#[O+].[C-]#[O+].[C-]#[O+].[C-]#[O+].[C-]#[O+].[Co].[Co]`: the EC50 was more than 200 µM and the IC50 came to 7.41 µM. On to `COC(=O)c1c(C)cccc1C1CN=NC12Cc1cccc(C)c1C2=O` (stereo unspecified), for which the EC50 was more than 126 µM and the IC50 was found to be 81.3 µM.
